Experimental data published in US5824072A, “Biocompatible ocular implants” (Oculex Pharmaceuticals, Inc., priority 1996, dated 1998).
Like-named read-outs stand apart in the source and are kept apart here.

Key:
[1] = In vitro drug release from polyurethane sheets; assay type: physicochemical
Experimental: After drying of the mixtures, implants were then cut from the resulting sheets of drug-filled polymer affixed to the release liner. The drug-release behavior of the polymeric, drug-containing sheets was then tested. The release liner was removed from an implant sheet and a weighed sample of the sheet added to a solution containing four parts by weight ethanol and six parts by weight of deionized water at 37° C. with slow stirring. The appearance of the dissolved drug was followed as a function of time by spectrophotometry.

[2] = rabbit, in vivo
Experimental: One eye of each of six rabbits was implanted at the pars plana with methotrexate (MTX)-lactic acid microspheres and in one eye of another six rabbits with hydrocortisone, acetate-lactic acid microspheres.
A 40% (by weight) mixture of MIX and hydrocortisone with polylactate polymer were solubilized in chloroform and ethanol (Table 1). Coacervation into microcapsules tool place in 500 ml of a 5% polyvinyl alcohol aqueous solution with moderate to high speed stirring. Evaporation was performed under light vacuum with constant stirring for an additional 8 hrs. The resulting microspheres measuring 0.1 to 0.5 mm were selected and dried in vacuum for an additional 24 to 48 hours. Approximately 25 microcapsules were implanted at the pars plana.

[3] = rabbit, in vivo; remark: listed apart in the source
Experimental: A 40% (by weight) of MTX and hydrocortisone and polylactate polymer were mixed under moltened conditions (Table 2). The resulting mixture was plated into a thin layer of approximately 0.4 to 0.5 mm in thickness and cooled overnight at room temperature. A plaque measuring approximately 3×4 mm was fashioned from the layer and was surgically placed into the pars plana.
Plaques of MTX and hydrocortsone were given to one eye of each of 3 animals at the pars plana and over the vitreous base following scleral resection.

C[C@@H]1C[C@H]2[C@@H]3CCC4=CC(=O)C=C[C@]4(C)[C@@]3(F)[C@@H](O)C[C@]2(C)[C@@]1(O)C(=O)CO [dexamethasone]
more than 50%: drug released from sheets ([1]; Example 1 polyurethane/dexamethasone sheet, ethanol/deionized water 4:6 by weight, 37° C., within 4 hrs)

CN(Cc1cnc2nc(N)nc(N)c2n1)c1ccc(C(=O)N[C@@H](CCC(=O)O)C(=O)O)cc1 [MTX, methotrexate]
0 µg/mL: drug concentration, LE PC ([2]; 10080 min) | drug concentration, LE PC ([2]; 20160 min) | drug concentration, LE PC ([2]; 30240 min) | drug concentration, LE PC ([2]; 40320 min) | drug concentration, LE PC ([2]; 50400 min) | drug concentration, LE PC ([2]; 60480 min) | drug concentration, LE PC ([3]; 43200 min) | drug concentration, LE PC ([3]; 86400 min) | drug concentration, LE PC ([3]; 129600 min)

C[C@]12CCC(=O)C=C1CC[C@@H]1[C@@H]2[C@@H](O)C[C@@]2(C)[C@H]1CC[C@]2(O)C(=O)CO [Hydrocortisone, hydrocortisone]
0 µg/mL: drug concentration, RE PC ([2]; 10080 min) | drug concentration, RE PC ([2]; 20160 min) | drug concentration, RE PC ([2]; 30240 min) | drug concentration, RE PC ([2]; 40320 min) | drug concentration, RE PC ([2]; 50400 min) | drug concentration, RE PC ([2]; 60480 min) | drug concentration, RE PC ([3]; 43200 min) | drug concentration, RE PC ([3]; 86400 min) | drug concentration, RE PC ([3]; 129600 min)

Nc1nc(O)c2ncn(COC(CO)CO)c2n1 [gancyclovir]
more than 60%: drug released from sheets ([1]; Example 2 polyurethane/gancyclovir sheet, in vitro as described above, after the first 2 hrs)
